Data taken from patent US20170150719A1, “FUNGICIDAL PYRAZOLES AND THEIR MIXTURES” (E I DU PONT DE NEMOURS AND COMPANY, priority 2010, published 2017).

How the values were obtained:
[1] = tested on: Blumeria graminis f. sp. tritici; assay: Test K (K1-K5): wheat powdery mildew, Compound 81 alone and in mixtures, observed and Colby expected control; format: in vivo
[2] = tested on: Puccinia recondita f sp. tritici; assay: Test L (L1-L5): wheat leaf rust, Compound 81 alone and in mixtures, observed and Colby expected control; format: in vivo; conditions: for Test L5 Obsd, disease control rating: wheat leaf rust
[3] = tested on: Septoria tritici; assay: Test M (M1-M5): wheat leaf blotch, Compound 81 alone and in mixtures, observed and Colby expected control; format: in vivo
[4] = tested on: Septoria tritici; assay: Test F: wheat leaf blotch, preventive spray on wheat seedlings, visual disease rating; format: in vivo; conditions: 100 = 100% disease control, 0 = no disease control relative to the controls
Source text: (§1) A hyphen (-) indicates no test results.

[5] = tested on: Puccinia recondita f. sp. tritici; assay: Test G: wheat leaf rust, spray after inoculation (curative) on wheat seedlings, visual disease rating; format: in vivo; conditions: sprayed after inoculation, 100 = 100% disease control, 0 = no disease control
Source text: as §1

[6] = tested on: Puccinia recondita f. sp. tritici; assay: Test H: wheat leaf rust, preventive spray on wheat seedlings, visual disease rating; conditions: 100 = 100% disease control, 0 = no disease control; for Test H rating (disease control): wheat leaf rust, sprayed the day before inoculation
Description: (§2) General protocol for preparing test suspensions for Tests A-I: the test compounds were first dissolved in acetone in an amount equal to 3% of the final volume and then suspended at the desired concentration (in ppm) in acetone and purified water (50/50 mix by volume) containing 250 ppm of the surfactant Trem® 014 (polyhydric alcohol esters). The resulting test suspensions were then used in Tests A-I. Each test was conducted in triplicate, and the results were averaged. Spraying a 200 ppm test suspension to the point of run-off on the test plants was the equivalent of a rate of about 800 g/ha. Unless otherwise indicated, the rating values indicate a 200 ppm test suspension was used. (An asterisk “*” next to the rating value indicates a 40 ppm test suspension was used.)
The test suspension was sprayed to the point of run-off on wheat seedlings. The following day the seedlings were inoculated with a spore suspension of Puccinia recondita f. sp. tritici (the causal agent of wheat leaf rust) and incubated in a saturated atmosphere at 20° C. for 24 h, and then moved to a growth chamber at 20° C. for 6 days, after which time visual disease ratings were made.

[7] = tested on: Botrytis cinerea; assay: Test A: tomato Botrytis, preventive spray on tomato seedlings, visual disease rating; conditions: 100 = 100% disease control, 0 = no disease control relative to the controls; for Test A rating (disease control): tomato Botrytis
[8] = tested on: Alternaria solani; assay: Test B: tomato early blight, preventive spray on tomato seedlings, visual disease rating; conditions: for Test B rating (disease control): tomato early blight, 100 = 100% disease control, 0 = no disease control relative to the controls
Description: as §2
The test suspension was sprayed to the point of run-off on tomato seedlings. The following day the seedlings were inoculated with a spore suspension of Alternaria solani (the causal agent of tomato early blight) and incubated in a saturated atmosphere at 27° C. for 48 h, and then moved to a growth chamber at 20° C. for 5 days, after which time visual disease ratings were made.

[9] = tested on: Blumeria graminis f. sp. tritici; assay: Test I: wheat powdery mildew, preventive spray on wheat seedlings, visual disease rating; conditions: 100 = 100% disease control, 0 = no disease control relative to the controls; for Test I rating (disease control): wheat powdery mildew
[10] = tested on: Septoria nodorum; assay: Test E: Septoria glume blotch, preventive spray on wheat seedlings, visual disease rating; conditions: 100 = 100% disease control, 0 = no disease control relative to the controls; for Test E rating (disease control): Septoria glume blotch
Description: as §2
The test suspension was sprayed to the point of run-off on wheat seedlings. The following day the seedlings were inoculated with a spore suspension of Septoria nodorum (the causal agent of Septoria glume blotch) and incubated in a saturated atmosphere at 24° C. for 48 h, and then moved to a growth chamber at 20° C. for 9 days, after which time visual disease ratings were made.

C=CCOC1=NS(=O)(=O)c2ccccc21 [probenazole]
Test K1 Obsd ([1]; component (b) 10 ppm alone): 68% | Test K1 Obsd ([1]; component (b) 40 ppm alone): 21% | Test K1 Obsd ([1]; component (b) 200 ppm alone): 71% | Test L1 Obsd ([2]; component (b) 10 ppm alone): 9% | Test L1 Obsd ([2]; component (b) 40 ppm alone): 18% | Test L1 Obsd ([2]; component (b) 200 ppm alone): 18% | Test M1 Obsd, disease control rating ([3]; component (b) 10 ppm alone): 0% | Test M1 Obsd, disease control rating ([3]; component (b) 40 ppm alone): 0% | Test M1 Obsd, disease control rating ([3]; component (b) 200 ppm alone): 0%

CC(C)C1C2CCC1c1c(NC(=O)c3cn(C)nc3C(F)F)cccc12 (stereo not shown) [isopyrazam]
Test K3 Obsd ([1]; component (b) 0.08 ppm alone): 0% | Test K3 Obsd ([1]; component (b) 0.4 ppm alone): 50% | Test K3 Obsd ([1]; component (b) 2 ppm alone): 99% | Test K3 Obsd ([1]; component (b) 10 ppm alone): 99% | Test L5 Obsd, disease control rating ([2]; component (b) 0.016 ppm alone): 68% | Test L5 Obsd, disease control rating ([2]; component (b) 0.08 ppm alone): 89% | Test L5 Obsd, disease control rating ([2]; component (b) 0.4 ppm alone): 100% | Test L5 Obsd, disease control rating ([2]; component (b) 2 ppm alone): 100% | Test M2 Obsd, disease control rating ([3]; component (b) 0.08 ppm alone): 0% | Test M2 Obsd, disease control rating ([3]; component (b) 0.4 ppm alone): 77% | Test M2 Obsd, disease control rating ([3]; component (b) 2 ppm alone): 93% | Test M2 Obsd, disease control rating ([3]; component (b) 10 ppm alone): 100%

CC1CCN(c2c(-c3c(F)cc(F)cc3F)c(Cl)nc3ncnn23)CC1 [BAS600, 5-chloro-6-(2,4,6-trifluorophenyl)-7-(4-methylpiperidin-1-yl)[1,2,4]triazolo[1,5-a]pyrimidine]
Test K3 Obsd ([1]; component (b) 0.08 ppm alone): 0% | Test K3 Obsd ([1]; component (b) 0.4 ppm alone): 0% | Test K3 Obsd ([1]; component (b) 2 ppm alone): 96% | Test K3 Obsd ([1]; component (b) 10 ppm alone): 100% | Test L3 Obsd ([2]; component (b) 0.08 ppm alone): 74% | Test L3 Obsd ([2]; component (b) 0.4 ppm alone): 88% | Test L3 Obsd ([2]; component (b) 2 ppm alone): 99% | Test L3 Obsd ([2]; component (b) 10 ppm alone): 100% | Test M2 Obsd, disease control rating ([3]; component (b) 0.016 ppm alone): 0% | Test M2 Obsd, disease control rating ([3]; component (b) 0.08 ppm alone): 0% | Test M2 Obsd, disease control rating ([3]; component (b) 0.4 ppm alone): 93% | Test M2 Obsd, disease control rating ([3]; component (b) 2 ppm alone): 100%

CCCN(CC)CC1COC2(CCC(C(C)(C)C)CC2)O1 (stereo not shown) [spiroxamine]
Test K3 Exp ([1]; component (b) 0.4 ppm alone): 0% | Test K3 Obsd ([1]; component (b) 0.4 ppm alone): 0% | Test K3 Exp ([1]; component (b) 2 ppm alone): 0% | Test K3 Obsd ([1]; component (b) 2 ppm alone): 0% | Test K3 Exp ([1]; component (b) 10 ppm alone): 0% | Test K3 Obsd ([1]; component (b) 10 ppm alone): 0% | Test K3 Exp ([1]; component (b) 40 ppm alone): 91% | Test K3 Obsd ([1]; component (b) 40 ppm alone): 99% | Test M5 Obsd disease control rating ([3]; component (b) alone 10 ppm): 0% | Test M5 Obsd disease control rating ([3]; component (b) alone 40 ppm): 3% | Test M5 Obsd disease control rating ([3]; component (b) alone 200 ppm): 0%

CC(C)CC(C)c1sccc1NC(=O)c1cn(C)nc1C(F)(F)F (stereo not shown) [penthiopyrad]
Test K3 Obsd ([1]; component (b) 0.08 ppm alone): 0% | Test K3 Obsd ([1]; component (b) 0.4 ppm alone): 0% | Test K3 Obsd ([1]; component (b) 2 ppm alone): 99% | Test K3 Obsd ([1]; component (b) 10 ppm alone): 100% | Test L5 Obsd, disease control rating ([2]; component (b) 0.016 ppm alone): 9% | Test L5 Obsd, disease control rating ([2]; component (b) 0.08 ppm alone): 55% | Test L5 Obsd, disease control rating ([2]; component (b) 0.4 ppm alone): 68% | Test L5 Obsd, disease control rating ([2]; component (b) 2 ppm alone): 99% | Test M2 Obsd, disease control rating ([3]; component (b) 0.08 ppm alone): 0% | Test M2 Obsd, disease control rating ([3]; component (b) 0.4 ppm alone): 0%

Cc1nn(C)c(Oc2c(F)cc(C#N)cc2F)c1-c1ccc(F)cc1Br [Compound 65, 4-[[4-(2-bromo-4-fluorophenyl)-1,3-dimethyl-1H-pyrazol-5-yl]oxy]-3,5-difluorobenzonitrile]
pest or weed control at 200 µg/mL ([4]; Zymoseptoria tritici): 100% | pest or weed control at 200 µg/mL [5]: 0% | pest or weed control at 200 µg/mL ([6]; read-out: Test H rating (disease control), wheat leaf rust, sprayed the day before inoculation): 100% | pest or weed control at 200 µg/mL ([7]; Botrytis cinerea, in Solanum lycopersicum, read-out: Test A rating (disease control), tomato Botrytis): 100% | pest or weed control at 200 µg/mL ([8]; Alternaria solani, in Solanum lycopersicum, read-out: Test B rating (disease control)): 99% | pest or weed control at 200 µg/mL ([9]; Blumeria graminis, in Triticum aestivum, read-out: Test I rating (disease control), wheat powdery mildew): 100% | pest or weed control at 200 µg/mL ([10]; Parastagonospora nodorum, in Triticum aestivum, read-out: Test E rating (disease control), Septoria glume blotch): 99%

Cc1nn(C)c(Nc2ccc(F)cc2F)c1-c1c(F)cc(C#N)cc1F [compound 30]
Test F rating (disease control) [4]: 100% | Test G rating (disease control) [5]: 82% | Test H rating (disease control) [6]: 99% | Test A rating (disease control) [7]: 100% | Test B rating (disease control) [8]: 99% | Test I rating (disease control) [9]: 100% | Test E rating (disease control) [10]: 90%

COc1cc(F)c(Nc2c(-c3ccc(F)cc3F)c(C)nn2C)c(F)c1 [compound 12]
Test F rating (disease control) [4]: 93% | Test G rating (disease control) [5]: 0% | Test H rating (disease control) [6]: 94% | Test A rating (disease control) [7]: 100% | Test B rating (disease control) [8]: 0% | Test I rating (disease control) [9]: 82% | Test E rating (disease control) [10]: 0%

COc1cc(F)c(-c2c(C)nn(C)c2C(O)c2ccc(F)cc2F)c(F)c1 (stereo not shown) [compound 62]
Test F rating (disease control) [4]: 100% | Test G rating (disease control) [5]: 0% | Test H rating (disease control) [6]: 99% | Test A rating (disease control) [7]: 100% | Test B rating (disease control) [8]: 100% | Test I rating (disease control) [9]: 99% | Test E rating (disease control) [10]: 99%
